# Data: PubChem BioAssay AID2060601 (Molecular Pharmacology Branch, DTP, NCI, 2025)
# Several values for one entry are separate records, joined by “and”; a condition that tells them apart may be missing. Equal entries are not always repeated.
# Test system: 874868-142-R-J2-PDC complex spheroids, growth % test/control
# Assay: Anticancer human tumor 874868-142-R-J2-PDC patient-derived head and neck squamous carcinoma cell line growth inhibition [CLK]
# Conditions: for viability, T/C: stronger effect = lower value
# Excerpt: A high-throughput screen of multi-cell type tumor spheroids was designed to identify active combinations of […] and targeted small molecules. Complex spheroids include a stromal component modeled by human endothelial cells (HUVEC) and fibroblasts modeled by human mesenchymal stem cells (MSCs). The concentration ranges selected for each drug and investigational agent were based upon clinically achievable concentrations if the clinical Cmax of the agent was known.
# Compounds. The drugs and investigational agents: cirtuvivint (SM08502; NSC835563), CC-671 (NSC850746), vemurafenib (NSC761431), tapotoclax (NSC804041), sotorasib (NSC818433), adagrasib (NSC831453), MRTX-1133 (NSC836407), BAY2416964 (NSC825713), copanlisib (NSC816437), inavolisib (NSC800729), abemaciclib (NSC768073), osimertinib (NSC779217), entinostat (NSC756642), eltanexor (KPT-8602, NSC794443), venetoclax (NSC766270), ceralasertib (NSC777638), bortezomib (NSC756655), olaparib (NSC753686), talazoparib (NSC767125), alisertib (NSC759677), peposertib (NSC802822), gemcitabine (NSC613327), 5-fluorouracil (NSC19893), SN-38 (NSC673596), oxaliplatin (NSC266046), paclitaxel (NSC125973), and doxorubicin (NSC123127), were obtained from the National Cancer Institute (NCI) Developmental Therapeutics Program Chemical Repository. The FDA-approved anticancer drug set is available from the Developmental Therapeutics Program at https://dtp.cancer.gov/organization/dscb/obtaining/available plates.htm. […] The stock solutions were prepared in dimethyl sulfoxide (DMSO, Sigma-Aldrich, St. Louis, MO, cat. D2650), except for the platinum complexes which were prepared in saline (Quality Biological, Gaithersburg, MD, cat. 114-055-101), at 800-fold the tested concentration and stored at -70 degrees C prior to their use. All drugs and investigational agents were tested over a range starting from a high concentration at or near the clinical Cmax and decreasing in half-log increments. If the clinical Cmax for an agent had not been determined, the highest concentration tested was 10 microM.
# Cell Culture. All cells were maintained in an incubator at 37 degrees C and 5% CO2 with 95% humidity. The PDC lines were cultured according to standard operating procedures established by the NCI PDMR. Briefly, all PDCs were thawed and cultured in Matrigel-coated flasks prepared with a working solution of 1X Ham's F-12 nutrient mix, without supplementation (Invitrogen, Waltham, MA, cat. 11765054), 100 U/mL penicillin-streptomycin (Invitrogen, cat. 15140122), and 2.5% Matrigel (Corning Inc., Corning, NY, cat. 354248) for the first three passages. The 947758-054-R-J2-PDC line was cultured in 6B/Colon 1A media, which includes advanced DMEM/F-12 (Thermo Fisher Scientific, cat. 12634028), 10 mM HEPES (Thermo Fisher Scientific, cat. 15630080), 1X GlutaMAX supplement (Thermo Fisher Scientific, cat. 35050061), 0.1 mg/mL primocin (InvivoGen, cat. ant-pm-2), 10% defined fetal bovine serum, heat inactivated (HyClone Laboratories Inc., cat. SH30070.03HI), 1.25 mM N-Acetyl-L-cysteine (Sigma-Aldrich, cat. A9165), 10 mM nicotinamide (Sigma-Aldrich, cat. N0636), 1X B-27 supplement (Thermo Fisher Scientific, cat. 17504044), 1X N-2 supplement (Thermo Fisher Scientific, cat. 17502048), and 10 microM Y-27632 dihydrochloride (Tocris Bioscience, cat. 1254). The 876862-298-R-J1-PDC was cultured in 6E media, which includes all 6B/Colon 1A media components plus 50% L-WRN conditioned media (ATCC, cat. CRL-3276), 50 ng/mL recombinant human EGF recombinant protein (hEGF; Thermo Fisher Scientific, cat. PHG0311), 10 ng/mL recombinant human fibroblast growth factor 10 (hGFG-10; PeproTech, cat. 100-26), 1 ng/mL recombinant human fibroblast growth factor 2 (hFGF-2; PeproTech, cat. 100-18B), and 1 µM prostaglandin E2 (PGE2; Tocris, cat. 2296). The 227483-062-R1-J1-PDC line was cultured in Panc media, containing all 6E components except hFGF-2, with the addition of 500 nM SB-431542 (Selleckchem, cat. S1067) and 10 nM gastrin (Tocris, cat. 3006). […]
# [1] = curve of first compound, second compound 0.0316 µM
# [2] = curve of first compound, second compound 0.1 µM
# [3] = curve of first compound, second compound 0.316 µM
# [4] = curve of first compound, second compound 1 µM
# [5] = curve of first compound, second compound 3.16 µM
# [6] = curve of first compound, second compound 10 µM
# [7] = second compound 0.0316 µM, first compound 0.0316 µM
# [8] = second compound 0.0316 µM, first compound 0.1 µM
# [9] = second compound 0.0316 µM, first compound 0.316 µM
# [10] = second compound 0.0316 µM, first compound 1 µM
# [11] = second compound 0.0316 µM, first compound 3.16 µM
# [12] = second compound 0.0316 µM, first compound 10 µM
# [13] = second compound 0.1 µM, first compound 0.0316 µM
# [14] = second compound 0.1 µM, first compound 0.1 µM
# [15] = second compound 0.1 µM, first compound 0.316 µM
# [16] = second compound 0.1 µM, first compound 1 µM
# [17] = second compound 0.1 µM, first compound 3.16 µM
# [18] = second compound 0.1 µM, first compound 10 µM
# [19] = second compound 0.316 µM, first compound 0.0316 µM
# [20] = second compound 0.316 µM, first compound 0.1 µM
# [21] = second compound 0.316 µM, first compound 0.316 µM
# [22] = second compound 0.316 µM, first compound 1 µM
# [23] = second compound 0.316 µM, first compound 3.16 µM
# [24] = second compound 0.316 µM, first compound 10 µM
# [25] = second compound 1 µM, first compound 0.0316 µM
# [26] = second compound 1 µM, first compound 0.1 µM
# [27] = second compound 1 µM, first compound 0.316 µM
# [28] = second compound 1 µM, first compound 1 µM
# [29] = second compound 1 µM, first compound 3.16 µM
# [30] = second compound 1 µM, first compound 10 µM
# [31] = second compound 3.16 µM, first compound 0.0316 µM
# [32] = second compound 3.16 µM, first compound 0.1 µM
# [33] = second compound 3.16 µM, first compound 0.316 µM
# [34] = second compound 3.16 µM, first compound 1 µM
# [35] = second compound 3.16 µM, first compound 3.16 µM
# [36] = second compound 3.16 µM, first compound 10 µM
# [37] = second compound 10 µM, first compound 0.0316 µM
# [38] = second compound 10 µM, first compound 0.1 µM
# [39] = second compound 10 µM, first compound 0.316 µM
# [40] = second compound 10 µM, first compound 1 µM
# [41] = second compound 10 µM, first compound 3.16 µM
# [42] = second compound 10 µM, first compound 10 µM
# 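Note: spheroids exposed to the compounds for 7 days.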
structure (smiles),measurement,setting,value
C=CC(=O)Nc1cc(Nc2nccc(-c3cn(C)c4ccccc34)n2)c(OC)cc1N(C)CCN(C)C,"viability, T/C",compound 0.000949 µM,103% and 99.9%
same,"viability, T/C",compound 0.003 µM,99.5% and 112%
same,"viability, T/C",compound 0.00949 µM,81.5% and 83.4%
same,"viability, T/C",compound 0.03 µM,83.7% and 76.9%
same,"viability, T/C",compound 0.0949 µM,42.4% and 47.1%
same,"viability, T/C",compound 0.3 µM,24.2% and 20.6%
same,IC50,curve of compound,83.5 nM and 85.2 nM
COC1C=CCC(C)C(C)S(=O)(=O)NC(=O)c2ccc3c(c2)N(CC2CCC21)CC1(CCCc2cc(Cl)ccc21)CO3 (stereo not drawn) + CNC(=O)c1ccc(Nc2nc(OC3CCCC3)c3c(-c4ccc5nc(C)oc5c4)c[nH]c3n2)c(OC)c1,IC50,[1],706 nM
same,IC50,[2],751 nM
same,IC50,[3],79.6 nM
same,IC50,[4],< 31.6 nM
same,IC50,[5],< 31.6 nM
same,IC50,[6],< 31.6 nM
same,"viability, T/C",[7],92.5%
same,"viability, T/C",[8],87.4%
same,"viability, T/C",[9],64.6%
same,"viability, T/C",[10],42.1%
same,"viability, T/C",[11],28.4%
same,"viability, T/C",[12],15.8%
same,"viability, T/C",[13],92.2%
same,"viability, T/C",[14],68%
same,"viability, T/C",[15],57.1%
same,"viability, T/C",[16],56.6%
same,"viability, T/C",[17],28%
same,"viability, T/C",[18],13.2%
same,"viability, T/C",[19],58.7%
same,"viability, T/C",[20],49.1%
same,"viability, T/C",[21],35.6%
same,"viability, T/C",[22],29.1%
same,"viability, T/C",[23],25%
same,"viability, T/C",[24],14.3%
same,"viability, T/C",[25],44.4%
same,"viability, T/C",[26],34.8%
same,"viability, T/C",[27],24.9%
same,"viability, T/C",[28],18.6%
same,"viability, T/C",[29],14.8%
same,"viability, T/C",[30],16.8%
same,"viability, T/C",[31],36.9%
same,"viability, T/C",[32],28.7%
same,"viability, T/C",[33],25.7%
same,"viability, T/C",[34],19.7%
same,"viability, T/C",[35],18.5%
same,"viability, T/C",[36],16.9%
same,"viability, T/C",[37],40.1%
same,"viability, T/C",[38],30.4%
same,"viability, T/C",[39],32.8%
same,"viability, T/C",[40],17.4%
same,"viability, T/C",[41],20.6%
same,"viability, T/C",[42],14.9%
CC(Nc1ccc2c(c1)OCCn1cc(N3C(=O)OCC3C(F)F)nc1-2)C(N)=O (stereo not drawn) + CN1CCN(c2cc(C(=O)Nc3cc4cc(-c5cnn(C)c5)ccc4cn3)ccn2)CC1,IC50,[1],89.4 nM
same,IC50,[2],75.5 nM
same,IC50,[3],< 31.6 nM
same,IC50,[4],< 31.6 nM
same,IC50,[5],< 31.6 nM
same,IC50,[6],< 31.6 nM
same,"viability, T/C",[7],69.5%
same,"viability, T/C",[8],46.7%
same,"viability, T/C",[9],33.7%
same,"viability, T/C",[10],22.6%
same,"viability, T/C",[11],13.8%
same,"viability, T/C",[12],12.3%
same,"viability, T/C",[13],78.7%
same,"viability, T/C",[14],36.1%
same,"viability, T/C",[15],30.2%
same,"viability, T/C",[16],20.7%
same,"viability, T/C",[17],12.8%
same,"viability, T/C",[18],12%
same,"viability, T/C",[19],19.3%
same,"viability, T/C",[20],15.2%
same,"viability, T/C",[21],17.8%
same,"viability, T/C",[22],8.67%
same,"viability, T/C",[23],12.4%
same,"viability, T/C",[24],8.37%
same,"viability, T/C",[25],0.31%
same,"viability, T/C",[26],1.8%
same,"viability, T/C",[27],1.32%
same,"viability, T/C",[28],0.15%
same,"viability, T/C",[29],1.54%
same,"viability, T/C",[30],0.14%
same,"viability, T/C",[31],0.28%
same,"viability, T/C",[32],3.06%
same,"viability, T/C",[33],0.36%
same,"viability, T/C",[34],0.11%
same,"viability, T/C",[35],0.47%
same,"viability, T/C",[36],0.23%
same,"viability, T/C",[37],0.13%
same,"viability, T/C",[38],0.11%
same,"viability, T/C",[39],1.27%
same,"viability, T/C",[40],0.14%
same,"viability, T/C",[41],0.18%
same,"viability, T/C",[42],0.2%
COc1ccc([C@@H](O)c2cc(-c3ncnc4cc(N5CCOCC5)ccc34)c(F)cc2Cl)nn1 + CNC(=O)c1ccc(Nc2nc(OC3CCCC3)c3c(-c4ccc5nc(C)oc5c4)c[nH]c3n2)c(OC)c1,IC50,[1],2250 nM
same,IC50,[2],3710 nM
same,IC50,[3],517 nM
same,IC50,[4],< 31.6 nM
same,IC50,[5],< 31.6 nM
same,IC50,[6],< 31.6 nM
same,"viability, T/C",[7],106%
same,"viability, T/C",[8],100%
same,"viability, T/C",[9],101%
same,"viability, T/C",[10],64.5%
same,"viability, T/C",[11],47.6%
same,"viability, T/C",[12],31.7%
same,"viability, T/C",[13],81.5%
same,"viability, T/C",[14],89.7%
same,"viability, T/C",[15],73.7%
same,"viability, T/C",[16],67.5%
same,"viability, T/C",[17],52.6%
same,"viability, T/C",[18],36.9%
same,"viability, T/C",[19],52.7%
same,"viability, T/C",[20],60%
same,"viability, T/C",[21],55.6%
same,"viability, T/C",[22],40.5%
same,"viability, T/C",[23],40.3%
same,"viability, T/C",[24],23.4%
same,"viability, T/C",[25],43.5%
same,"viability, T/C",[26],46.5%
same,"viability, T/C",[27],40%
same,"viability, T/C",[28],29.7%
same,"viability, T/C",[29],25.1%
same,"viability, T/C",[30],23.1%
same,"viability, T/C",[31],37.6%
same,"viability, T/C",[32],38.9%
same,"viability, T/C",[33],45.2%
same,"viability, T/C",[34],32.9%
same,"viability, T/C",[35],37%
same,"viability, T/C",[36],23.5%
same,"viability, T/C",[37],40.4%
same,"viability, T/C",[38],38.6%
same,"viability, T/C",[39],39.2%
same,"viability, T/C",[40],28.6%
same,"viability, T/C",[41],32.3%
same,"viability, T/C",[42],18.6%
